Assay results from US10139394B2, “Method for controlling cancer metastasis or cancer cell migration by modulating the cellular level of lysyl tRNA synthetase” (Medicinal Bioconvergence Research Center, priority 2008, dated 2018).

Tests used:
67LR = 67LR level in membrane and cytoplasm of A549 cells (Western blotting, flow cytometry); format: cell-based; settings: membrane fraction, FIG. 13
Method: In FIG. 13, A549 cells were transfected with si-control or si-KRS and incubated in the absence and presence of laminin. The cells were then separated to cytoplasm and membrane fractions, and the levels of 67LR and KRS in each fraction were determined by Western blotting. Cadherin (cad) and hsp90 were used as the markers for plasma membrane and cytoplasm, respectively. In FIG. 14, the membrane-bound 67LR level in A549 cells was monitored by flow cytometry using anti-LR antibody (MLuC5). The cells were transfected with empty vector or KRS plasmid and incubated for 24 h (upper). […] In FIG. 15, A549 cells transfected with EV or KRS was selected with G418 for a week and cellular distribution of 67LR was determined by immunofluorescence staining with anti-LR antibody (MLuC5). […] In FIG. 16, A549 cells were treated with cycloheximide to inhibit de novo protein synthesis and the effect of KRS levels on 67LR level in membrane and cytoplasm was determined by Western blotting. In FIG. 17, the importance of KRS for cellular stability of 67LR was determined by pulse-chase experiment. […]
To address cell cycle, the cultivated cells were transfected or treated with the indicated vector or chemicals, fixed with 70% ethanol for 1 hr at 4° C. and washed with ice-cold PBS two times. […] For each sample, 20,000 cells were analyzed using Cell Quest Pro software. […]

A549 cells = assay: Cell migration assay in Transwell chamber; format: cell-based; settings: laminin 10 μg/ml in lower well, 6 hr, in average, FIG. 24 and 18
Method: In FIG. 18, A549 cells were transfected with the indicated plasmids, incubated in the absence and presence of laminin and their effect on cell migration was determined by measuring the migrated cells in transwell chamber as described. The numbers of the cells passed through the membrane were counted and shown in each panel. The experiments were performed three times. In FIG. 19, the cells treated as above were used to determine MMP-2 activity and level by zymography and Western blotting, respectively. In FIG. 20, Breast carcinoma 4T-1 cells were transfected with the indicated siRNA and subcutaneously injected to the back of Balb/C mice. After 21 days, mouse lungs were isolated and tumor nodules over 1 mm in diameter were counted. In FIG. 21, two different 4T-1 cells stably expressing exogenously introduced KRS (KRS-1 and -2) were also inoculated as above and the tumor nodules were counted 30 days after injection. […]
FIGS. 24 to 27 show effect of intracellular and extracellular KRS on cell migration, protein synthesis and cell cycle. In FIG. 24, Migration of A549 cells incubated in the absence of laminin was determined was determined by measuring the migrated cells in Transwell chamber. […] After 6 hr of incubation, the migrant were counted. […] In FIG. 27, A549 cells transfected as indicated were fixed and stained with propidium iodide, and their cell cycle was determined by flow cytometry. […]

## laminin: laminin (Engelbreth-Holm-Swarm murine sarcoma) from Sigma
67LR
  67LR level: increased
A549 cells
  Migration of the control cells, enhancement: about 6 fold
